Data reported in PubChem BioAssay AID1259407 (Chemical Carcinogenesis Research Information System (CCRIS), 2018).
Active and inactive are the calls of the source. The rule behind the calls is not given here.

System: CCRIS mutagenicity, Ames/micronucleus/aberration tests
Test: CCRIS mutagenicity studies
[1] = Test System: AMES SALMONELLA TYPHIMURIUM, Strain/Indicator: TA98, Metabolic Activation: NONE, Method: STANDARD PLATE
[2] = Test System: AMES SALMONELLA TYPHIMURIUM, Strain/Indicator: TA100, Metabolic Activation: NONE, Method: STANDARD PLATE
[3] = Test System: AMES SALMONELLA TYPHIMURIUM, Strain/Indicator: TA1535, Metabolic Activation: NONE, Method: STANDARD PLATE
[4] = Test System: AMES SALMONELLA TYPHIMURIUM, Strain/Indicator: TA1537, Metabolic Activation: NONE, Method: STANDARD PLATE
[5] = Test System: AMES SALMONELLA TYPHIMURIUM, Strain/Indicator: TA100, Metabolic Activation: NONE, Method: PREINCUBATION

## Cc1cccc(O)c1N
Test System: AMES SALMONELLA TYPHIMURIUM, Strain/Indicator: TA98, Metabolic Activation: HAMSTER LIVER S-9, AROCLOR 1254, Method: STANDARD PLATE
  mutagenic call: inactive; negative
[1]
  mutagenic call: inactive; negative
Test System: AMES SALMONELLA TYPHIMURIUM, Strain/Indicator: TA98, Metabolic Activation: RAT LIVER S-9, AROCLOR 1254, Method: STANDARD PLATE
  mutagenic call: inactive; negative
Test System: AMES SALMONELLA TYPHIMURIUM, Strain/Indicator: TA100, Metabolic Activation: HAMSTER LIVER S-9, AROCLOR 1254, Method: STANDARD PLATE
  mutagenic call: inactive; negative
[2]
  mutagenic call: inactive; negative
Test System: AMES SALMONELLA TYPHIMURIUM, Strain/Indicator: TA100, Metabolic Activation: RAT LIVER S-9, AROCLOR 1254, Method: STANDARD PLATE
  mutagenic call: inactive; negative
Test System: AMES SALMONELLA TYPHIMURIUM, Strain/Indicator: TA102, Metabolic Activation: HAMSTER LIVER S-9, AROCLOR 1254, Method: STANDARD PLATE
  mutagenic call: inactive; negative
Test System: AMES SALMONELLA TYPHIMURIUM, Strain/Indicator: TA102, Metabolic Activation: NONE, Method: STANDARD PLATE
  mutagenic call: inactive; negative
Test System: AMES SALMONELLA TYPHIMURIUM, Strain/Indicator: TA102, Metabolic Activation: RAT LIVER S-9, AROCLOR 1254, Method: STANDARD PLATE
  mutagenic call: inactive; negative
Test System: AMES SALMONELLA TYPHIMURIUM, Strain/Indicator: TA1535, Metabolic Activation: HAMSTER LIVER S-9, AROCLOR 1254, Method: STANDARD PLATE
  mutagenic call: inactive; negative
[3]
  mutagenic call: inactive; negative
Test System: AMES SALMONELLA TYPHIMURIUM, Strain/Indicator: TA1535, Metabolic Activation: RAT LIVER S-9, AROCLOR 1254, Method: STANDARD PLATE
  mutagenic call: inactive; negative
Test System: AMES SALMONELLA TYPHIMURIUM, Strain/Indicator: TA1537, Metabolic Activation: HAMSTER LIVER S-9, AROCLOR 1254, Method: STANDARD PLATE
  mutagenic call: inactive; negative
[4]
  mutagenic call: inactive; negative
Test System: AMES SALMONELLA TYPHIMURIUM, Strain/Indicator: TA1537, Metabolic Activation: RAT LIVER S-9, AROCLOR 1254, Method: STANDARD PLATE
  mutagenic call: inactive; negative
Test System: MOUSE LYMPHOMA, Strain/Indicator: L5178Y (TK+/TK-), Metabolic Activation: NONE, Method: SUSPENSION/PLATE
  mutagenic call: active; positive. reevaluation of results: positive
Test System: MOUSE LYMPHOMA, Strain/Indicator: L5178Y (TK+/TK-), Metabolic Activation: RAT, LIVER, S-9, AROCLOR 1254, Method: SUSPENSION/PLATE
  mutagenic call: active; positive. reevaluation of results: equivocal

## O=C1Nc2ccc(Cl)cc2C(c2ccccc2)=NC1O (stereo not drawn)
End Point: IN VITRO MICRONUCLEUS, Test System: HUMAN - HUMAN AMNIOTIC FLUID FIBROBLAST-LIKE (AFFL) CELLS, Metabolic Activation: NONE
  mutagenic call: active; positive
End Point: IN VITRO MICRONUCLEUS, Test System: MOUSE LYMPHOMA L5178Y CELLS, Metabolic Activation: NONE
  mutagenic call: active; positive
End Point: IN VITRO MICRONUCLEUS, Test System: SYRIAN HAMSTER EMBRYO FIBROBLAST (SHE) CELLS, Metabolic Activation: NONE
  mutagenic call: active; positive
Test System: AMES SALMONELLA TYPHIMURIUM, Strain/Indicator: TA97, Metabolic Activation: HAMSTER, LIVER, S-9, AROCLOR 1254 (10%), Method: PREINCUBATION
  mutagenic call: inactive; negative
Test System: AMES SALMONELLA TYPHIMURIUM, Strain/Indicator: TA97, Metabolic Activation: HAMSTER, LIVER, S-9, AROCLOR 1254 (30%), Method: PREINCUBATION
  mutagenic call: inactive; negative
Test System: AMES SALMONELLA TYPHIMURIUM, Strain/Indicator: TA97, Metabolic Activation: NONE, Method: PREINCUBATION
  mutagenic call: inactive; negative
Test System: AMES SALMONELLA TYPHIMURIUM, Strain/Indicator: TA97, Metabolic Activation: RAT, LIVER, S-9, AROCLOR 1254 (30%), Method: PREINCUBATION
  mutagenic call: inactive; negative
Test System: AMES SALMONELLA TYPHIMURIUM, Strain/Indicator: TA98, Metabolic Activation: HAMSTER, LIVER, S-9, AROCLOR 1254 (10 OR 30%), Method: PREINCUBATION
  mutagenic call: inactive; negative
Test System: AMES SALMONELLA TYPHIMURIUM, Strain/Indicator: TA98, Metabolic Activation: NONE, Method: PREINCUBATION
  mutagenic call: inactive; negative
[1]
  mutagenic call: inactive; negative
Test System: AMES SALMONELLA TYPHIMURIUM, Strain/Indicator: TA98, Metabolic Activation: RAT, LIVER, S-9, AROCLOR 1254 (10 OR 30%), Method: PREINCUBATION
  mutagenic call: inactive; negative
Test System: AMES SALMONELLA TYPHIMURIUM, Strain/Indicator: TA98, Metabolic Activation: RAT, LIVER, S-9, AROCLOR 1254, Method: STANDARD PLATE
  mutagenic call: inactive; negative
Test System: AMES SALMONELLA TYPHIMURIUM, Strain/Indicator: TA100, Metabolic Activation: HAMSTER, LIVER, S-9, AROCLOR 1254 (10%), Method: PREINCUBATION
  mutagenic call: inactive; negative
Test System: AMES SALMONELLA TYPHIMURIUM, Strain/Indicator: TA100, Metabolic Activation: HAMSTER, LIVER, S-9, AROCLOR 1254 (30%), Method: PREINCUBATION
  mutagenic call: inactive; negative
[5]
  mutagenic call: inactive; negative
[2]
  mutagenic call: inactive; negative
Test System: AMES SALMONELLA TYPHIMURIUM, Strain/Indicator: TA100, Metabolic Activation: RAT, LIVER, S-9, AROCLOR 1254 (10%), Method: PREINCUBATION
  mutagenic call: inactive; negative
Test System: AMES SALMONELLA TYPHIMURIUM, Strain/Indicator: TA100, Metabolic Activation: RAT, LIVER, S-9, AROCLOR 1254 (30%), Method: PREINCUBATION
  mutagenic call: inactive; negative
Test System: AMES SALMONELLA TYPHIMURIUM, Strain/Indicator: TA100, Metabolic Activation: RAT, LIVER, S-9, AROCLOR 1254, Method: STANDARD PLATE
  mutagenic call: inactive; negative
Test System: AMES SALMONELLA TYPHIMURIUM, Strain/Indicator: TA102, Metabolic Activation: HAMSTER, LIVER, S-9, AROCLOR 1254 (10%), Method: PREINCUBATION
  mutagenic call: inactive; negative
Test System: AMES SALMONELLA TYPHIMURIUM, Strain/Indicator: TA102, Metabolic Activation: HAMSTER, LIVER, S-9, AROCLOR 1254 (30%), Method: PREINCUBATION
  mutagenic call: inactive; negative
Test System: AMES SALMONELLA TYPHIMURIUM, Strain/Indicator: TA102, Metabolic Activation: NONE, Method: PREINCUBATION
  mutagenic call: inactive; negative
Test System: AMES SALMONELLA TYPHIMURIUM, Strain/Indicator: TA102, Metabolic Activation: RAT, LIVER, S-9, AROCLOR 1254 (10%), Method: PREINCUBATION
  mutagenic call: inactive; negative
Test System: AMES SALMONELLA TYPHIMURIUM, Strain/Indicator: TA102, Metabolic Activation: RAT, LIVER, S-9, AROCLOR 1254 (30%), Method: PREINCUBATION
  mutagenic call: inactive; negative
Test System: AMES SALMONELLA TYPHIMURIUM, Strain/Indicator: TA1535, Metabolic Activation: HAMSTER, LIVER, S-9, AROCLOR 1254 (10%), Method: PREINCUBATION
  mutagenic call: inactive; negative
Test System: AMES SALMONELLA TYPHIMURIUM, Strain/Indicator: TA1535, Metabolic Activation: HAMSTER, LIVER, S-9, AROCLOR 1254 (30%), Method: PREINCUBATION
  mutagenic call: inactive; negative
Test System: AMES SALMONELLA TYPHIMURIUM, Strain/Indicator: TA1535, Metabolic Activation: NONE, Method: PREINCUBATION
  mutagenic call: inactive; negative
[3]
  mutagenic call: inactive; negative
Test System: AMES SALMONELLA TYPHIMURIUM, Strain/Indicator: TA1535, Metabolic Activation: RAT, LIVER, S-9, AROCLOR 1254 (10%), Method: PREINCUBATION
  mutagenic call: inactive; negative
Test System: AMES SALMONELLA TYPHIMURIUM, Strain/Indicator: TA1535, Metabolic Activation: RAT, LIVER, S-9, AROCLOR 1254 (30%), Method: PREINCUBATION
  mutagenic call: inactive; negative
Test System: AMES SALMONELLA TYPHIMURIUM, Strain/Indicator: TA1535, Metabolic Activation: RAT, LIVER, S-9, AROCLOR 1254, Method: STANDARD PLATE
  mutagenic call: inactive; negative
[4]
  mutagenic call: inactive; negative
Test System: AMES SALMONELLA TYPHIMURIUM, Strain/Indicator: TA1537, Metabolic Activation: RAT, LIVER, S-9, AROCLOR 1254, Method: STANDARD PLATE
  mutagenic call: inactive; negative

## [N-]=[N+]=NCC(=O)O
Test System: AMES SALMONELLA TYPHIMURIUM, Strain/Indicator: TA1530, Metabolic Activation: NONE, Method: STANDARD PLATE
  mutagenic call: inactive; negative

## C[C@H](CN=[N+]=[N-])c1ccccc1
[5]
  mutagenic call: inactive; negative
Test System: AMES SALMONELLA TYPHIMURIUM, Strain/Indicator: TA100, Metabolic Activation: RAT, LIVER, S-9, PCB, Method: PREINCUBATION
  mutagenic call: active; positive
